We go through 9 molecules from article PMC8848307 (Journal of medicinal chemistry, 2019).

Each structure is given as a SMILES string. Several values for one entry are separate records, joined by “and”; a condition that tells them apart may be missing. Equal entries are not always repeated.

Assay [1] deals with T1, STAT3 protein (Homo sapiens, UniProt P40763). The assay can be described thus: Western blotting of STAT3 degradation in Molm-16 cells. In kind it is cell-based. The note with it: Molm-16 cells, ratio of DC50. Background: In western blotting, separated proteins are transferred to a membrane and probed.
Assay [2] has as its target T1, STAT3 protein. The assay can be described thus: Western blotting of STAT3 degradation in SU-DHL-1 cells. It is filed as cell-based. Particulars: for times less potent than SD-36 in STAT3 degradation: SU-DHL-1 cells, ratio of DC50; for reducing the levels of STAT3 and pSTAT3^Y705 proteins: SU-DHL-1, up to 5 μM.

T1 sequence (P40763 whole entry): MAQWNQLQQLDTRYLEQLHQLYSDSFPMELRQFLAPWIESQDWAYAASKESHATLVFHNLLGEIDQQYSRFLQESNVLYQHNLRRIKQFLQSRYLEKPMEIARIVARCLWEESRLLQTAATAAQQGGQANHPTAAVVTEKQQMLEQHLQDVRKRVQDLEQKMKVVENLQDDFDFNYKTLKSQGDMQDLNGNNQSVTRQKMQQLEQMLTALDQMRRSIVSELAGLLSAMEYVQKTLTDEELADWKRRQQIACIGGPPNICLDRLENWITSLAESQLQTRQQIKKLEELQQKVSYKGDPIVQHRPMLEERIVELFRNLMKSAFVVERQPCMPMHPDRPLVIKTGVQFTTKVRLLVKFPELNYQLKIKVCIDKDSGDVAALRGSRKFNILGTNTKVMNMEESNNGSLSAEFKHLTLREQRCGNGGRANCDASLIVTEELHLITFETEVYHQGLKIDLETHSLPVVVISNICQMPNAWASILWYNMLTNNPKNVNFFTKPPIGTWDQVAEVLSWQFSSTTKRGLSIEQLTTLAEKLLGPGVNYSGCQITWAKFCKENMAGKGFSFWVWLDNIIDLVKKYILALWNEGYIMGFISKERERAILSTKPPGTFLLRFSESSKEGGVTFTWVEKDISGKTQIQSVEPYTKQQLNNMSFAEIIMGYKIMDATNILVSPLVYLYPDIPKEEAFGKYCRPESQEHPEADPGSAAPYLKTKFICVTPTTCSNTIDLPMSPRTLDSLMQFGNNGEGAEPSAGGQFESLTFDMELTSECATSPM

As to `NC(=O)CC[C@H](NC(=O)[C@@H]1CC[C@@H]2CCN(CCCCCCC#Cc3cccc4c3CN(C3CCC(=O)NC3=O)C4=O)C[C@H](NC(=O)c3cc4cc(C(F)(F)P(=O)(O)O)ccc4[nH]3)C(=O)N21)C(=O)NC(c1ccccc1)c1ccccc1` (stereo partly drawn) [Compound 17, ((2-(((5S,8S,10aR)-8-(((S)-5-Amino-1-(benzhydrylamino)-1,5-dioxopentan-2-yl)carbamoyl)-3-(8-(2-(2,6-dioxopiperidin-3-yl)-1-oxoisoindolin-4-yl)oct-7-yn-1-yl)-6-oxodecahydropyrrolo[1,2-a][1,5]diazocin-5-yl)carbamoyl)-1H-indol-5-yl)difluoromethyl)phosphonic Acid], the “times less potent than SD-36 in STAT3 degradation” value on STAT3 protein [1] is on record as greater than 10 times; on STAT3 protein [2] it was 30 times.
Regarding `NC(=O)CC[C@H](NC(=O)[C@@H]1CC[C@@H]2CCN(C(=O)OCCCCC#Cc3cccc4c3CN(C3CCC(=O)NC3=O)C4=O)C[C@H](NC(=O)c3cc4cc(C(F)(F)P(=O)(O)O)ccc4[nH]3)C(=O)N21)C(=O)NC(c1ccccc1)c1ccccc1` (stereo partly drawn) [Compound 18, ((2-(((5S,8S,10aR)-8-(((S)-5-Amino-1-(benzhydrylamino)-1,5-dioxopentan-2-yl)carbamoyl)-3-(((6-(2-(2,6-dioxopiperidin-3-yl)-1-oxoisoindolin-4-yl)hex-5-yn-1-yl)oxy)carbonyl)-6-oxodecahydropyrrolo[1,2-a][1,5]diazocin-5-yl)carbamoyl)-1H-indol-5-yl)difluoromethyl)phosphonic Acid], the “times less potent than SD-36 in STAT3 degradation” value on STAT3 protein [2] came to 2 times.
Take `NC(=O)CC[C@H](NC(=O)[C@@H]1CC[C@@H]2CCN(C(=O)CCCCCC#Cc3cccc4c3CN(C3CCC(=O)NC3=O)C4=O)C[C@H](NC(=O)c3cc4cc(C(F)(F)P(=O)(O)O)ccc4[nH]3)C(=O)N21)C(=O)NCc1ccccc1` (stereo partly drawn) [Compound 30, ((2-(((5S,8S,10aR)-8-(((S)-5-Amino-1-(benzylamino)-1,5-dioxopentan-2-yl)carbamoyl)-3-(8-(2-(2,6-dioxopiperidin-3-yl)-1-oxoisoindolin-4-yl)oct-7-ynoyl)-6-oxodecahydropyrrolo-[1,2-a][1,5]diazocin-5-yl)carbamoyl) −1H-indol-5-yl)difluoromethyl)phosphonic Acid]: the results for the “times less potent than SD-36 in STAT3 degradation” value at STAT3 protein [1] and at STAT3 protein [2] were 4 times and 2 times, respectively.
For `NC(=O)CC[C@H](NC(=O)[C@@H]1CC[C@@H]2CCN(C(=O)CCCCCC#Cc3cccc4c3C(=O)N(C3CCC(=O)NC3=O)C4=O)C[C@H](NC(=O)c3cc4cc(C(F)(F)P(=O)(O)O)ccc4[nH]3)C(=O)N21)C(=O)NC(c1ccccc1)c1ccccc1` (stereo partly drawn) [Compound 27, ((2-(((5S,8S,10aR)-8-(((S)-5-Amino-1-(benzhydrylamino)-1,5-dioxopentan-2-yl)carbamoyl)-3-(8-(2-(2,6-dioxopiperidin-3-yl)-1,3-dioxoisoindolin-4-yl)oct-7-ynoyl)-6-oxodecahydropyrrolo[1,2-a][1,5]diazocin-5-yl)carbamoyl)-1H-indol-5-yl)difluoromethyl)phosphonic Acid], on STAT3 protein [1], the “times less potent than SD-36 in STAT3 degradation” value is listed as greater than 50 times. Also, the “reducing the levels of STAT3 and pSTAT3^Y705 proteins” value on STAT3 protein [2] was “ineffective”.
`CNC(=O)[C@H](CCC(N)=O)NC(=O)[C@@H]1CC[C@@H]2CCN(C(=O)CCCCCC#Cc3cccc4c3CN(C3CCC(=O)NC3=O)C4=O)C[C@H](NC(=O)c3cc4cc(C(F)(F)P(=O)(O)O)ccc4[nH]3)C(=O)N21` (stereo partly drawn) [Compound 31, ((2-(((5S,8S,10aR)-8-(((S)-5-Amino-1-(methylamino)-1,5-dioxopentan-2-yl)carbamoyl)-3-(8-(2-(2,6-dioxopiperidin-3-yl)-1-oxoisoindolin-4-yl)oct-7-ynoyl)-6-oxodecahydropyrrolo-[1,2-a][1,5]diazocin-5-yl)carbamoyl)-1H-indol-5-yl)difluoromethyl)phosphonic Acid]: the “times less potent than SD-36 in STAT3 degradation” value was 10 times and > 10 times on STAT3 protein [1]; 30 times at STAT3 protein [2].
For the molecule `NC(=O)CC[C@H](NC(=O)[C@@H]1CC[C@@H]2CCN(C(=O)CC(=O)N3CCC(C#Cc4cccc5c4CN(C4CCC(=O)NC4=O)C5=O)CC3)C[C@H](NC(=O)c3cc4cc(C(F)(F)P(=O)(O)O)ccc4[nH]3)C(=O)N21)C(=O)NC(c1ccccc1)c1ccccc1` (stereo partly drawn) [Compound 24, ((2-(((5S,8S,10aR)-8-(((S)-5-Amino-1-(benzhydrylamino)-1,5-dioxopentan-2-yl)carbamoyl)-3-(3-(4-((2-(2,6-dioxopiperidin-3-yl)-1-oxoisoindolin-4-yl)ethynyl)piperidin-1-yl)-3-oxopropanoyl)-6-oxodecahydropyrrolo[1,2-a][1,5]diazocin-5-yl)-carbamoyl)-1H-indol-5-yl)difluoromethyl)phosphonic Acid], the “times less potent than SD-36 in STAT3 degradation” value at STAT3 protein [1] is given as 6 times.
The same measure, in the same setting: to `NC(=O)CC[C@H](NC(=O)[C@@H]1CC[C@@H]2CCN(C(=O)CCCCCC#Cc3ccc4c(c3)C(=O)N(C3CCC(=O)NC3=O)C4)C[C@H](NC(=O)c3cc4cc(C(F)(F)P(=O)(O)O)ccc4[nH]3)C(=O)N21)C(=O)NC(c1ccccc1)c1ccccc1` (stereo partly drawn) [Compound 29, ((2-(((5S,8S,10aR)-8-(((S)-5-Amino-1-(benzhydrylamino)-1,5-dioxopentan-2-yl)carbamoyl)-3-(8-(2-(2,6-dioxopiperidin-3-yl)-3-oxoisoindolin-5-yl)oct-7-ynoyl)-6-oxodecahydropyrrolo-[1,2-a][1,5]diazocin-5-yl)carbamoyl)-1H-indo 1–5-yl)difluoromethyl)phosphonic Acid] belongs 5–10 times.
As to `C/C(=C\C(=O)N[C@H]1CN(C(=O)CCCCCC#Cc2cccc3c2CN(C2CCC(=O)NC2=O)C3=O)CC[C@H]2CC[C@@H](C(=O)N[C@@H](CCC(N)=O)C(=O)NC(c3ccccc3)c3ccccc3)N2C1=O)c1ccc(C(F)(F)P(=O)(O)O)cc1` (stereo partly drawn) [Compound 34, ((4-((E)-4-(((5S,8S,10aR)-8-(((S)-5-Amino-1-(benzhydrylamino)-1,5-dioxopentan-2-yl)carbamoyl)-3-(8-(2-(2,6-dioxopiperidin-3-yl)-1-oxoisoindolin-4-yl)oct-7-ynoyl)-6-oxodecahydropyrrolo[1,2-a][1,5]diazocin-5-yl)amino)-4-oxobut-2-en-2-yl)phenyl)difluoromethyl)phosphonic Acid], the “times less potent than SD-36 in STAT3 degradation” value on STAT3 protein [1] is listed as greater than 70 times. Also, the “effect on the levels of STAT3 and pSTAT3^Y705” value on STAT3 protein [2] (SU-DHL-1, concentrations up to 10 μM) was “fails to degrade”. Besides, the “reducing the levels of STAT3 and pSTAT3^Y705 proteins” value at STAT3 protein [2] is on record as “ineffective”.
Take `NC(=O)CC[C@H](NC(=O)[C@@H]1CC[C@@H]2CCN(C(=O)CCCCC#Cc3cccc4c3CN(C3CCC(=O)NC3=O)C4=O)C[C@H](NC(=O)c3cc4cc(C(F)(F)P(=O)(O)O)ccc4[nH]3)C(=O)N21)C(=O)NC(c1ccccc1)c1ccccc1` (stereo partly drawn) [Compound 13, ((2-(((5S,8S,10aR)-8-(((S)-5-Amino-1-(benzhydrylamino)-1,5-dioxopentan-2-yl)carbamoyl)-3-(7-(2-(2,6-dioxopiperidin-3-yl)-1-oxoisoindolin-4-yl)hept-6-ynoyl)-6-oxodecahydropyrrolo[1,2-a][1,5]diazocin-5-yl)carbamoyl)-1H-indol-5-yl)difluoromethyl)phosphonic Acid]: the “times more potent than 12 in STAT3 degradation” value on STAT3 protein [1] is on record as 10 times.
